Assay results as given in patent publication US20230346924A1, “MRNA VACCINE COMPRISING ADJUVANT CAPABLE OF KINETIC CONTROL” (PROGENEER INC., priority 2020, published 2023).
“Also recorded” adds a separate entry of the source.

Assays:
[1] = test system: T cells isolated from the spleen of an OT-1 mouse; assay: OT-1 T cell activation in co-culture of treated BMDCs and T cells; type: cell-based; conditions: BMDC/T cell co-culture
[2] = test system: bone marrow-derived dendritic cells (BMDCs); assay: Degree of antigen presentation in BMDCs treated with mRNA and toll-like receptor agonist (anti-OVA SIINFEKL antibodies); type: cell-based, mouse; conditions: compared to mRNA only
Experimental: To confirm the efficacy of the composition for an mRNA vaccine of the present invention, an experiment was performed using OVA mRNA which is widely used as an mRNA vaccine. In further detail, first, CleanCap® OVA mRNA (5 moU, L-7210, TriLink Biotechnologies) and Opti-MEM™ (Reduced Serum Medium, ThermoFisher Scientific) were mixed at a volume ratio of 1:49, and Lipofectamine (Lipofectamine™ 2000 Transfection Reagent, ThermoFisher Scientific) and Opti-MEM® were mixed at a volume ratio of 2:23 as a delivery system, and then the above mixtures were mixed again in a volume ratio of 1:1 and reacted for 5 minutes, thereby preparing an mRNA composition. As toll-like receptor agonists, a toll-like receptor 3 agonist, which is polyinosinic-polycytidylic acid (poly I:C, Sigma-Aldrich), a toll-like receptor 4 agonist, which is Lipopolysaccharide (LPS, Sigma-Aldrich), and a toll-like receptor 7 or 8 agonist which is resiquimod (Biorbyt), were used. Poly I:C was used after being dispersed in phosphate buffered saline (PBS) at a concentration of 0.8 mg/mL, LPS was used after being dispersed in PBS at a concentration of 0.3 μg/mL, R848 was first dissolved in dimethyl sulfoxide (DMSO) at a concentration of 20 mg/mL, and then the dissolved solution was dispersed in PBS to a concentration of 20 μg/mL and used. In the case of treatment with a single toll-like receptor agonist, poly I:C was treated at 40 μg/mL. LPS was treated at 30 ng/mL, or R848 was treated at […], and in the case of treatment with a combination of agonists, 2 μg/mL of poly I:C and 1 μg/mL of R848 were treated, or 2 ng/mL of LPS and 1 μg/mL of R848 were treated, and in both cases, mRNA was treated at 1 μg/mL.
To identify the efficacy of the composition for an mRNA vaccine of the present invention, as cells for experiments, bone marrow-derived dendritic cells (BMDCs), plasmacytoid dendritic cells (pDCs), and T cells isolated from the spleen of an ovalbumin-specific TCR-bearing mouse (OT-1 transgenic mouse: OT-1 mouse) were used. BMDCs and pDCs were obtained from the bone marrow of a laboratory mouse, C57BL/6 (female, Orient Bio). In further detail, a 6-weeks-old mouse was euthanized, the femur and tibia were cut, and then a medium was flushed to extract internal materials. In addition, the extracted materials were treated with a red blood cell lysis buffer (BioLegend) to remove red blood cells, and used. For pDCs, 6-weeks-old C57BL/6 was euthanized, the femur and tibia were cut, and then a medium was flushed to extract internal materials. The extracted materials were then treated with a red blood cell lysis buffer (BioLegend) to remove red blood cells, and only pDCs were isolated using a pDC isolation kit (Plasmacytoid Dendritic Cell Isolation Kit, mouse, MACS Miltenyi Biotec) to be used in the experiments. Spleen cells were used by extracting the spleen from an OT-1 laboratory mouse, physically grinding the spleen to prepare single cells, washing the cells with PBS, and removing red blood cells with a red blood cell lysis buffer. The obtained cells were then seeded in a culture plate (Corning petri dish) with a size of 100 mm×25 mm to 2×10^6 cells, and cultured under conditions of 5% CO2 and 37° C. As a culture medium, a complete RPMI 1640 medium(Gibco) to which 20 ng/mL of a granulocyte-macrophage colony-stimulating factor (GM-CSF, Recombinant Mouse GM-CSF Protein, R&D Systems) was added, was used. […]

[3] = test system: bone marrow-derived dendritic cells (BMDCs); assay: Cytokine secretion by BMDCs (ELISA: IL-12p70, IL-10, type 1 IFN); type: cell-based, mouse
Experimental: To confirm the efficacy of the composition for an mRNA vaccine of the present invention, an experiment was performed using OVA mRNA which is widely used as an mRNA vaccine. In further detail, first, CleanCap® OVA mRNA (5 moU, L-7210, TriLink Biotechnologies) and Opti-MEM™ (Reduced Serum Medium, ThermoFisher Scientific) were mixed at a volume ratio of 1:49, and Lipofectamine (Lipofectamine™ 2000 Transfection Reagent, ThermoFisher Scientific) and Opti-MEM® were mixed at a volume ratio of 2:23 as a delivery system, and then the above mixtures were mixed again in a volume ratio of 1:1 and reacted for 5 minutes, thereby preparing an mRNA composition. As toll-like receptor agonists, a toll-like receptor 3 agonist, which is polyinosinic-polycytidylic acid (poly I:C, Sigma-Aldrich), a toll-like receptor 4 agonist, which is Lipopolysaccharide (LPS, Sigma-Aldrich), and a toll-like receptor 7 or 8 agonist which is resiquimod (Biorbyt), were used. […]
To confirm the effect of a composition for an mRNA vaccine including a single toll-like receptor in BMDCs, first, BMDCs were treated with a toll-like receptor agonist and modified-mRNA (5-methoxyuridine modified OVA mRNA, TriLink) in the same manner as in Example 12.1, and an antigen presentation degree, amounts of cell surface molecules and levels of cytokines such as interleukin-12p70 (IL-12p70) and interferon were measured. […]

[4] = agonist and mRNA at the same time (0h), compared to mRNA alone
[5] = agonist and mRNA at the same time (0h)
[6] = agonist four hours after mRNA (4h)

Row | Substance | amount of IFN-γ+ T cells ([1]; agonist 4h after mRNA) | level of IL-2 ([1]; agonist 4h after mRNA) | level of secreted IFN-γ ([1]; agonist 4h after mRNA) | amount of IFN-γ+ T cells ([1]; agonist 8h after mRNA) | level of IL-2 ([1]; agonist 8h after mRNA) | level of secreted IFN-γ ([1]; agonist 8h after mRNA) | amount of IFN-γ+ T cells [1, 4] | level of IL-2 [1, 4] | level of secreted IFN-γ [1, 4] | degree of antigen presentation [2, 5] | degree of antigen presentation [2, 6] | secretion of type 1 IFN [3, 5] | secretion of type 1 IFN [3, 6] | degree of antigen presentation ([2]; agonist eight hours after mRNA (8h))
1 | polyinosinic-polycytidylic acid [poly I:C] | markedly increased | highest; also recorded: markedly increased | markedly increased | markedly increased | markedly increased | markedly increased | remarkably reduced | remarkably reduced | remarkably reduced | remarkably reduced | significantly increased | markedly increased | reduced | 
2 | Lipopolysaccharide [LPS] |  |  |  |  |  |  |  |  |  | reduced | increased |  |  | increased
